row,Compound,melting point [°C]
1,CCOC(=O)c1ccc(NC(=O)c2ccncc2)cc1,143 to 145
2,Cn1c(-c2ccc(O)cc2)cc2ccc(O)cc21,200 to 204
3,O=C(NCCc1ccccc1)c1ccccn1,58 to 59
4,COc1ccc(CN(OC)C(=O)C2=C(O)C(=O)N(C)C2)cc1,135 to 137
5,CC(C)CCNc1nc(N2CCCCC2)nc2c(NCCC(C)C)nc(N3CCCCC3)nc12,192 to 194
6,C#CCCc1cc2cc(C(=O)OC)ccc2o1,57 to 58
7,O[C@@H]1[C@H](O)[C@H](O)CO[C@H]1n1c(Br)nc2c(F)c(Cl)c(Cl)cc21,165
8,COc1ccc(C2Sc3cccc4cccc(c34)NC(=O)C2O)cc1 (stereo unspecified),218 to 219
9,Cc1cccnc1CS(N)(=O)=O,155 to 158
10,CCOC(=O)c1cc2ccoc2nc1C(=O)OCC,66 to 77
11,Cc1cc(C#N)cc(C(=O)Nc2ccc(F)c(C)c2)n1,177
12,CCCN1C(=O)N2CCCN=C2c2c1ncn2C,107 to 109
13,Cc1nc(N)nc(N)c1-c1cc(Cl)cc(Cl)c1,242 to 244
14,COc1ccc(-c2c(C(=O)O)c(=O)n(Cc3ccccc3OC)c3c2oc2cc(N)ccc23)cc1,245
15,COC1(OC)C=Cc2cc(Cc3cnc(N)nc3N)cc(OCC3CC3)c2O1,204 to 206
16,CC(C)(C)C(=O)C=Cc1cnc2ccccc2c1,146 to 148
17,OC(c1ccccc1)(c1ccc(C(F)(F)F)cc1)c1nccn1Cc1ccccc1 (stereo unspecified),167 to 169
18,CC(C)(O)c1ccc(-c2cnc3[nH]c(=O)n(CC4CCCCC4)c3n2)cn1,> 250
19,Cc1cccc(NCCNc2cccc(C)c2C)c1C,130 to 133
20,COC(=O)CCC12CCC(=O)N1C(=O)CC2,110 to 112
21,CCc1c(O)cc(=O)[nH]c1C,360
22,CC(CC#N)C(=O)c1ccc(C(=O)C(C)CC#N)cc1 (stereo unspecified),142 to 145
23,CS(=O)(=O)c1ccc(C(=O)N[C@H]2CC[C@H](CCN3CCN(c4nccc5c4OCC5)CC3)CC2)s1,212
24,CCOC(=O)C(C)Oc1ncn(-c2cccc(Cl)c2)n1 (stereo unspecified),70 to 72
25,COC(=O)c1sc2ccccc2c1S(N)(=O)=O,150 to 154
26,CCCCc1oc2ccccc2c1C(=O)c1cc(Br)c(O[C@H](Cc2ccccc2)C(=O)O)c(Br)c1,56 to 58

row,Compound,melting point [°C]
1,CN(C)C(=O)c1cc2c(OC[C@H](O)CN3CCC(c4ccc5ccccc5c4)CC3)cccc2[nH]1,158 to 160
2,CCOC(=O)C1=C(N2CCCC2)N=C(C)C(C(=O)OC)C1c1cccc([N+](=O)[O-])c1 (stereo unspecified),103
3,"CC1CCC(C(C)C)C(OC(=O)C(O)c2ccccc2)C1 (single isomer, unassigned; (-))",50 to 51
4,CN(CC(=O)O)C[C@H]1O[C@H](c2ccccc2Cl)c2cc(Cl)ccc2N(Cc2ccccc2)C1=O (relative stereo),195 to 197
5,CC(C)(C(=O)O)c1ccc(Cl)c([N+](=O)[O-])c1,157
6,CCCCc1c(/C=C/C(=O)Oc2ccc([N+](=O)[O-])cc2)ccc2ccc(OC)cc12,114 to 115
7,COc1cc(C(C)=NO)ccc1OCCCN1CCC(c2noc3cc(F)ccc23)CC1,168 to 170
8,COC(=O)c1c(N)cc(OC)c(OC)c1OC,94 to 96
9,O=C(NO)[C@H](CNS(=O)(=O)c1ccc(OCc2ccc3ccccc3c2)cc1)N1CCCCC1,106
10,CCCCCS(=O)(=O)NC(=O)/C=C/c1cc(C(C)(C)C)nn1Cc1ccc(C(F)(F)F)cc1Cl,147 to 148
11,Nc1cc(Br)nc(CO)c1,144 to 145
12,N[C@H]1CC[C@@H](Oc2ccc3[nH]ncc3c2)CC1,144 to 146
13,CCNC(=O)Nc1ncc(-c2ccncc2)cn1,241 to 246
14,COc1cc(C=C2C(=O)NC(=O)N2C)ccc1O,197 to 198
15,O=C1CC(c2ccc(Cl)cc2Cl)Oc2ccccc21 (stereo unspecified),91 to 92
16,CCCC1=C(C#N)C(c2ccccc2Cl)c2c(n[nH]c2C2CCCCC2)N1 (stereo unspecified),> 270
17,Clc1ncnc2ccccc12,83
18,Cc1ccc(Nc2c(F)cccc2Cl)c(CC(=O)O)c1,152 to 154
19,Cc1ccccc1P(=O)(Cc1ccc2ccccc2c1-c1c(CP(=O)(c2ccccc2C)c2ccccc2C)ccc2ccccc12)c1ccccc1C,231 to 234
20,CCCCCOC(=O)CNC(=O)c1nc(Cl)c2ccc(OC(C)C)cc2c1O,75 to 77
21,Cc1cccc(Cl)c1C(=O)N[C@@H](Cc1ccc(-c2cn(C)c(=O)n(C)c2=O)cc1)C(=O)O,234 to 236
22,COc1ccc(CN(C)CCOc2ccc(NC(=O)c3cccc4c(=O)c5cccc(OC)c5[nH]c34)cc2)cc1OC,184
23,Cc1oc(-c2ccccc2)nc1C(O)COc1ccc(N)cc1 (stereo unspecified),139 to 140
24,CN(CCCNC(=NCCCCOc1cccc(CN2CCCCC2)c1)NC#N)CCN(Cc1ccc(F)cc1)c1ccccn1,102 to 105
25,COc1ccc2[nH]c(/C=C/C=O)cc2c1,145 to 147
26,OC1CSC(Oc2cnc(Cl)c(F)c2)C(O)C1O (stereo unspecified),198 to 200

row,Compound,melting point [°C]
1,CCn1cc(C(=O)O)c(=O)c2cc(F)c(N3CCNC(Cn4cccc4)C3)cc21 (stereo unspecified),185 to 188
2,Clc1ccc2c(NCc3ccccc3)nc(-n3ccnc3)nc2c1,265 to 268
3,CCOC(=O)C(=NOC)c1nnc(C)s1,79 to 81
4,CC1=C(c2ccccc2F)C(=O)N(C(C)(C)C(O)c2ccc(F)c(C)c2)CO1 (stereo unspecified),87.6 to 89
5,CCN(CC)CCOc1ccc(-n2c(-c3ccccc3)cc(=O)c3ccccc32)cc1,115 to 117
6,COC(=O)COc1c(C(=O)OC)n(-c2ccccc2)c2ccc(OC)cc12,97 to 100
7,Cc1ccc(Cc2cnc(NCCCNc3ccc(C#N)cn3)[nH]c2=O)cn1,175 to 177
8,COC(=O)Cn1sc2nc(C)cc(C)c2c1=O,89 to 91
9,C=C(C)n1c(=O)n(CCN(C)Cc2ccccc2)c2ccccc21,107 to 109
10,O=[N+]([O-])c1ccc(C=CS(=O)(=O)N=C(Cl)c2ccccc2)cc1,168 to 175
11,CN(O)C(=O)Nc1c(C(=O)c2ccccc2)[nH]c2cc(Cl)ccc12,208 to 214
12,Nc1c(C(=O)O)cnn1-c1ccc(Cl)cc1,169 to 171
13,CCc1cccc(CC)c1NS(=O)(=O)c1ccc(C)cc1,130 to 131
14,CCCc1c(OCCCOc2ccc3c(c2)CCC(CC(=O)O)C3=O)ccc(C(C)=O)c1O (stereo unspecified),123 to 125
15,CCN(CC)CCCNC(=O)Cn1ncc(-c2ccc(C#N)cc2)c1-c1ccccc1,100 to 101
16,CCCCc1ccc(C(=O)O)c2ccccc12,136 to 137
17,CCCc1c(C(=O)NCc2ccc(-c3ccc(OCC(=O)O)cc3)cc2)cnn1-c1ccccc1,190 to 192
18,CCOC(=O)CCc1cccc2c1Sc1cc(C#N)ccc1CC2,61 to 62
19,O=C(O)C(=CNc1ccc(O)c(=O)cc1)C(=O)O,175 to 176
20,N#Cc1cc([N+](=O)[O-])ccc1Oc1c(F)c(F)cc(F)c1F,152 to 154
21,CCOC(=N)c1ccc(-c2cc3ncn([C@H](C)[C@](O)(Cn4cncn4)c4ccc(F)cc4F)c(=O)c3s2)cc1,158 to 161
22,Nc1sc2c(c1C(=O)c1cccc3ccccc13)CCC2,255 to 257
23,CS(=O)c1ccccc1C1CCCC2(C1)C(=O)Nc1ccccc12 (stereo unspecified),190 to 191
24,O=C(NC1CCCCC1)NC1N=C(C2CCCCC2)c2ccccc2N(CC(=O)N2CC3CCC(CC3)C2)C1=O (racemic),195 to 197
25,CCOc1sc(C)nc1S(=O)(=O)NC(=O)Nc1nc(OC)cc(OC)n1,140 to 143
26,O=C(O)CCCc1ccc2c(NC(=O)CC3CCCCC3)c(Cl)ccc2n1,216 to 220

row,Compound,melting point [°C]
1,COC(=O)c1cc(-c2c(Br)c(C(F)(F)F)n(C)c2Br)c(F)cc1Cl,97
2,O=C(CC(=O)Nc1ccc2c(c1)NC(=O)/C2=C\c1ccc[nH]1)Nc1ccc(F)cc1,> 300
3,CCOC(=O)C(Cc1ccccc1)(C(=O)Nc1ccc(Cl)cc1)c1ccccc1 (stereo unspecified),83 to 85
4,COc1ccc([N+](=O)[O-])c(NC(C(=O)O)C(c2ccccc2)c2ccccc2)n1 (stereo unspecified),172 to 180
5,Brc1ccc2c(Sc3ccccc3)c[nH]c2c1,145 to 148
6,Cn1c(C(F)(F)F)cc(=O)n(-c2cc(OCC(C)(C)C)c(Cl)cc2F)c1=O,122 to 124
7,CCOC(=O)C(=Cc1cccn2cc(-c3cccc(OC)c3)nc12)N=[N+]=[N-],109 to 111
8,COc1ccc(S(=O)(=O)Nc2ccccc2NC(C)=O)cc1,160 to 161
9,CCOP(=O)(Cc1nnc2c(=O)[nH]c3cc(C(F)(F)F)c(N)cc3n12)OCC,260 to 263
10,CC(=O)N1CCC(CCC(=O)c2ccc(F)cc2)CC1,95 to 96
11,O=C(N=c1sc2cc(C(F)(F)F)ccc2n1CCO)C(F)(F)F,198
12,CCc1cc(Cl)c2cccc(OC)c2n1,80 to 81
13,CC(C)c1cccc(C(C)C)c1NC(=O)NCCN1CCN(CCSc2nc3ccccc3[nH]2)CC1,120 to 122
14,CCOC(=O)C1CCc2c(n(C(C)=O)c3ccc(Cl)cc23)C1 (stereo unspecified),95 to 96
15,CC1(C)C=C(c2ccccn2)c2ccccc2O1,80 to 82
16,CN1C(=O)CCC2(C)c3ccc(-c4cccs4)cc3CCC12 (stereo unspecified),193 to 195
17,Cc1cc2c(-c3ccccc3)c(C(=O)O)oc(=O)c2cc1C,265 to 268
18,COC(=O)CC1CCc2cc(OC)ncc2C1O (stereo unspecified),92 to 96
19,CCCNC(=O)c1ccc2c(c1)N(C(C)CN1CCCCCC1)c1ccccc1S2 (racemic),113
20,O=C(CN1CCN(C(=O)OCc2ccccc2)CC1)Nc1ccccn1,78 to 80
21,CCCn1ccc2c(NCCc3ccc(OC)cc3)cccc2c1=O,109 to 110
22,O=C(Nc1cccc2ccnnc12)c1c(Cl)cccc1Cl,226 to 228
23,CCCCOC(=O)n1c2ccccc2c2nc3ccccc3cc21,168
